Laboratory results as given in ChEMBL document CHEMBL4507293 (2021).

Key:
[1] = target: Beta-1 adrenergic receptor (Homo sapiens) (UniProt P08588); details: Compound concentration 10.0 uM
[2] = target: Serine/threonine-protein kinase pim-1 (Homo sapiens) (UniProt P11309); details: Compound concentration 100.0 nM
[3] = tested on: eIF-2-alpha kinase GCN2 (Homo sapiens), Q9P2K8 [S808G]; details: Compound concentration 100.0 nM
[4] = target: Ribosomal protein S6 kinase alpha-4 (Homo sapiens) (UniProt O75676); details: Compound concentration 100.0 nM
[5] = target: Myosin-IIIb (Homo sapiens) (UniProt Q8WXR4); details: Compound concentration 100.0 nM
[6] = target: Serine/threonine-protein kinase mTOR (Homo sapiens) (UniProt P42345); details: Compound concentration 100.0 nM
[7] = target: MAP kinase-activated protein kinase 5 (Homo sapiens) (UniProt Q8IW41); details: Compound concentration 100.0 nM
[8] = tested on: Tyrosine-protein kinase ABL1 (Homo sapiens), P00519 [M351T]; details: Compound concentration 100.0 nM
[9] = target: Homeodomain-interacting protein kinase 2 (Homo sapiens) (UniProt Q9H2X6); details: Compound concentration 100.0 nM
Homeodomain-interacting protein kinase 2 (Homo sapiens), sequence (Q9H2X6 whole entry, looked up): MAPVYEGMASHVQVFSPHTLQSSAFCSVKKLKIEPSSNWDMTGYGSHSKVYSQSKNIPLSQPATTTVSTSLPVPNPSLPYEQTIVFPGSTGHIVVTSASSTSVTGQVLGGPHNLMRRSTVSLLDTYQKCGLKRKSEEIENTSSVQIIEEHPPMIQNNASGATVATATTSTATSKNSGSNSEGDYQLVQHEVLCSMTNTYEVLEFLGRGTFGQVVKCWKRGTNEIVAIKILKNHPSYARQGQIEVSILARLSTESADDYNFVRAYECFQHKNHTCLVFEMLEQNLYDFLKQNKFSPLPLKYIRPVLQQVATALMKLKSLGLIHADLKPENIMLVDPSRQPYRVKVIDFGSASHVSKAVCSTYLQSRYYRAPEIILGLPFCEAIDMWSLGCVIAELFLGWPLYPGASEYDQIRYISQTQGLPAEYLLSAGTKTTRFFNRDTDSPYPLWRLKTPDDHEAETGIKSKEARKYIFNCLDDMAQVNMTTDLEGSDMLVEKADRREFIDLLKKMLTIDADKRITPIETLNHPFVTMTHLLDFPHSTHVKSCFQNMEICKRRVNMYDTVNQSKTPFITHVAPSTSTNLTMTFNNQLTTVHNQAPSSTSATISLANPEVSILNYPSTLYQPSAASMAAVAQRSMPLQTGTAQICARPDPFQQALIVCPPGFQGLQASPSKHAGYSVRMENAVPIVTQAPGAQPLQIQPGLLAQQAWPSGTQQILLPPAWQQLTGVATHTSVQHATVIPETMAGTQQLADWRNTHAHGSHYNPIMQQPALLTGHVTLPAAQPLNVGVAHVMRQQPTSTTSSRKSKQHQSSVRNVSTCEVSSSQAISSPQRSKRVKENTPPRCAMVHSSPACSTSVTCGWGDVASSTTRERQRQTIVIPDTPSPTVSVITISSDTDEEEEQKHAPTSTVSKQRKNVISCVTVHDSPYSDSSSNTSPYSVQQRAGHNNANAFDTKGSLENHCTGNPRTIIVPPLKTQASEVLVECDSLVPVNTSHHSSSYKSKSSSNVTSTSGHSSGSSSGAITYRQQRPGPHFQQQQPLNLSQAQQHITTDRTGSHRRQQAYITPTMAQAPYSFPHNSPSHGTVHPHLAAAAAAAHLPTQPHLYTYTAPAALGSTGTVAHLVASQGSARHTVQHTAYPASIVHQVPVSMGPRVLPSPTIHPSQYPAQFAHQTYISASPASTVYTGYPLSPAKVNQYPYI

[10] = target: Ephrin type-B receptor 4 (Homo sapiens) (UniProt P54760); details: Compound concentration 100.0 nM
[11] = target: Vascular endothelial growth factor receptor 3 (Homo sapiens) (UniProt P35916); details: Compound concentration 100.0 nM
[12] = target: Microtubule-associated serine/threonine-protein kinase 1 (Homo sapiens) (UniProt Q9Y2H9); details: Compound concentration 100.0 nM
[13] = target: Rhodopsin kinase GRK1 (Homo sapiens) (UniProt Q15835); details: Compound concentration 100.0 nM
[14] = target: Mitogen-activated protein kinase kinase kinase 15 (Homo sapiens) (UniProt Q6ZN16); details: Compound concentration 100.0 nM
[15] = target: Leukocyte tyrosine kinase receptor (Homo sapiens) (UniProt P29376); details: Compound concentration 100.0 nM
[16] = target: Activated CDC42 kinase 1 (Homo sapiens) (UniProt Q07912); details: Compound concentration 100.0 nM
[17] = target: Wee1-like protein kinase (Homo sapiens) (UniProt P30291); details: Compound concentration 100.0 nM
Wee1-like protein kinase (Homo sapiens), sequence (P30291 whole entry, looked up, canonical isoform): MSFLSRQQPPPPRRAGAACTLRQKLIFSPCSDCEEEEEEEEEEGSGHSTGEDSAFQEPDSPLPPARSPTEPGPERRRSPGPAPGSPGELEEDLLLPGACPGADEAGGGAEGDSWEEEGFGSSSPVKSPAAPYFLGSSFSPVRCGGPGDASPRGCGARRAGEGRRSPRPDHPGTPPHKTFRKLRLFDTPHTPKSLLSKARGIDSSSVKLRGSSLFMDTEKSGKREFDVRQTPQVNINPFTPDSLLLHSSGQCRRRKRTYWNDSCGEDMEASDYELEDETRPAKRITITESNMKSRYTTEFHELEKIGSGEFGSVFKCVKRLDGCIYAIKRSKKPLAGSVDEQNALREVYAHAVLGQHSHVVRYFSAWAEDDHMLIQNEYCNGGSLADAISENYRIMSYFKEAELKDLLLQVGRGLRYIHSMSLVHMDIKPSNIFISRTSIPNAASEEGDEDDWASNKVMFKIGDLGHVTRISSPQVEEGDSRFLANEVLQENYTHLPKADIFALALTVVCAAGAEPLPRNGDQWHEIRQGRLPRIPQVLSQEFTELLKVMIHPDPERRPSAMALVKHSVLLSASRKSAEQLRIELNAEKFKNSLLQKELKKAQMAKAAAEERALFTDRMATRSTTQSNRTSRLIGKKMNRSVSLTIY

[18] = target: Casein kinase I isoform gamma-3 (Homo sapiens) (UniProt Q9Y6M4); details: Compound concentration 100.0 nM
Casein kinase I isoform gamma-3 (Homo sapiens), sequence (Q9Y6M4 whole entry, looked up, canonical isoform): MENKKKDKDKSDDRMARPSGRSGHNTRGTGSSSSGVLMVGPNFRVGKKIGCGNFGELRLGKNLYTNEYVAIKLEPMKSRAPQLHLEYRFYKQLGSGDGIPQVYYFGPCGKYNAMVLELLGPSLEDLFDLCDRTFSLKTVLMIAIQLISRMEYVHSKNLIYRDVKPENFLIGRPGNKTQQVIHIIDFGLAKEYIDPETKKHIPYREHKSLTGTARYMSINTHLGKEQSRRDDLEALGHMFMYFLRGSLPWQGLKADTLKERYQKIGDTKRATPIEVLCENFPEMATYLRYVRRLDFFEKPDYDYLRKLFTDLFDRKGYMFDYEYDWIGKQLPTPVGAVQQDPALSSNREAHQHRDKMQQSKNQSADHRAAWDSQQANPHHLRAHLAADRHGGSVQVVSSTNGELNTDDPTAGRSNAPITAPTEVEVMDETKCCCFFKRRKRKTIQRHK

[19] = target: Activin receptor type-2B (Homo sapiens) (UniProt Q13705); details: Compound concentration 100.0 nM
Activin receptor type-2B (Homo sapiens), sequence (Q13705 whole entry): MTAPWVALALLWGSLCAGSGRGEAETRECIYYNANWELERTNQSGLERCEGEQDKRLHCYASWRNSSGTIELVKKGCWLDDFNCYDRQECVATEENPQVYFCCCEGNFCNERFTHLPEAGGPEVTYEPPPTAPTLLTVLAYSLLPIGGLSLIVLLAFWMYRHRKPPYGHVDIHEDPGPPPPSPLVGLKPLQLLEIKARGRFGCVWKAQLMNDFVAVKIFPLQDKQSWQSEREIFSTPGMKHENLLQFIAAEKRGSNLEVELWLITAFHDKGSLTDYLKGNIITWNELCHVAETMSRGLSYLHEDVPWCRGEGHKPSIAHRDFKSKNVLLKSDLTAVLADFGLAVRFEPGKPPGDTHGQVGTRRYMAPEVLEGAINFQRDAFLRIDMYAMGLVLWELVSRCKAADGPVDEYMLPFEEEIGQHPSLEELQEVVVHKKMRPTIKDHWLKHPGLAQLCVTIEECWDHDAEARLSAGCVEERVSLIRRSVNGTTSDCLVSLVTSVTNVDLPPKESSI

[20] = tested on: Tyrosine-protein kinase ABL1 (Homo sapiens), P00519 [F317L]; details: Compound concentration 100.0 nM
[21] = tested on: ALK tyrosine kinase receptor (Homo sapiens), Q9UM73 [L1196M]; details: Compound concentration 100.0 nM
[22] = target: Peripheral plasma membrane protein CASK (Homo sapiens) (UniProt O14936); details: Compound concentration 100.0 nM
[23] = target: Protein kinase C eta type (Homo sapiens) (UniProt P24723); details: Compound concentration 100.0 nM
[24] = target: Proto-oncogene tyrosine-protein kinase Src (Homo sapiens) (UniProt P12931); details: Compound concentration 100.0 nM
[25] = target: Protein kinase C theta type (Homo sapiens) (UniProt Q04759); details: Compound concentration 100.0 nM
[26] = target: Serine/threonine-protein kinase MRCK beta (Homo sapiens) (UniProt Q9Y5S2); details: Compound concentration 100.0 nM
[27] = target: Tyrosine-protein kinase receptor UFO (Homo sapiens) (UniProt P30530); details: Compound concentration 100.0 nM
Tyrosine-protein kinase receptor UFO (Homo sapiens), sequence (P30530 whole entry): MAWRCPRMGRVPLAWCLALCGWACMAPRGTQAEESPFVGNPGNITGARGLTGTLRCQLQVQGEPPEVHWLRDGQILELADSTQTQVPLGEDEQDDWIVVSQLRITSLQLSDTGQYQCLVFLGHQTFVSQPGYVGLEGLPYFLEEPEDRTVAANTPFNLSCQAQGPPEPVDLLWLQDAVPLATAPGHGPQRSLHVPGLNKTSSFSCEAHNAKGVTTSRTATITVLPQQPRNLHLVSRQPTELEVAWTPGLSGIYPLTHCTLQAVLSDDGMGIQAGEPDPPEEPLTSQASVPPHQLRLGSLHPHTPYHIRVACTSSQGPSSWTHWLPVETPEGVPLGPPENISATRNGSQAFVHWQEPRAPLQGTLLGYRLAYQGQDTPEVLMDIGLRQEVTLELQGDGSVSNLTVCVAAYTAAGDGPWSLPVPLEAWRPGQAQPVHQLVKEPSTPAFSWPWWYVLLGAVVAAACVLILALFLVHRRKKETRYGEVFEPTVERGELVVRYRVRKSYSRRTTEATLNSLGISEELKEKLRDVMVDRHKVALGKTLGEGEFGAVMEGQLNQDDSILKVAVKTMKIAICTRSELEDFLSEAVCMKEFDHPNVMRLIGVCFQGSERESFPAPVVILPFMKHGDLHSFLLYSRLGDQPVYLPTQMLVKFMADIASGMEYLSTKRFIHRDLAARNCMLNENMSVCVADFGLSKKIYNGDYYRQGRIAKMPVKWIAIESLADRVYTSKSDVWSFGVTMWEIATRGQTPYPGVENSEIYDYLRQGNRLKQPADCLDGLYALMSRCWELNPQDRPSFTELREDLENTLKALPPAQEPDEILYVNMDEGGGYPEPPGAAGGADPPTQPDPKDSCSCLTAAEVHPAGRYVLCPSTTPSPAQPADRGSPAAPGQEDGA

[28] = target: Mitogen-activated protein kinase kinase kinase 7 (Homo sapiens) (UniProt O43318); details: Compound concentration 100.0 nM
[29] = target: Casein kinase I isoform epsilon (Homo sapiens) (UniProt P49674); details: Compound concentration 100.0 nM
[30] = target: Cyclin-dependent kinase 3 (Homo sapiens) (UniProt Q00526); details: Compound concentration 100.0 nM
[31] = target: MAP/microtubule affinity-regulating kinase 3 (Homo sapiens) (UniProt P27448); details: Compound concentration 100.0 nM
[32] = target: Calcium/calmodulin-dependent protein kinase type II subunit alpha (Homo sapiens) (UniProt Q9UQM7); details: Compound concentration 100.0 nM
[33] = target: T1, Alpha-2B adrenergic receptor (Homo sapiens) (UniProt P18089); details: Compound concentration 10.0 uM
T1 sequence (whole entry): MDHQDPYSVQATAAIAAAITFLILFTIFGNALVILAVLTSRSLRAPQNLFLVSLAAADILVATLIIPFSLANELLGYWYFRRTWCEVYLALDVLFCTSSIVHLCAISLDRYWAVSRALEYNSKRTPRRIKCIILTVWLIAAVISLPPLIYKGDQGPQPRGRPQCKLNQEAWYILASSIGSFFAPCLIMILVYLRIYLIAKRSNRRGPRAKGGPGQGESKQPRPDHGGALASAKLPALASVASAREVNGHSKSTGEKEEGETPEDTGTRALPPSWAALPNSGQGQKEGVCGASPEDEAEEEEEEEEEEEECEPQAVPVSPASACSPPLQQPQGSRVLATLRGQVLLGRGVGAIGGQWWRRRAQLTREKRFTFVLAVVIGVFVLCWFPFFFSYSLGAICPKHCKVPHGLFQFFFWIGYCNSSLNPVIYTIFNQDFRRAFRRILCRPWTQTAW

[34] = target: Dual specificity mitogen-activated protein kinase kinase 4 (Homo sapiens) (UniProt P45985); details: Compound concentration 100.0 nM
[35] = target: Tyrosine-protein kinase ABL1 (Homo sapiens) (UniProt P00519); details: Compound concentration 100.0 nM
[36] = target: Mitogen-activated protein kinase kinase kinase 6 (Homo sapiens) (UniProt O95382); details: Compound concentration 100.0 nM
Mitogen-activated protein kinase kinase kinase 6 (Homo sapiens), sequence (O95382 whole entry): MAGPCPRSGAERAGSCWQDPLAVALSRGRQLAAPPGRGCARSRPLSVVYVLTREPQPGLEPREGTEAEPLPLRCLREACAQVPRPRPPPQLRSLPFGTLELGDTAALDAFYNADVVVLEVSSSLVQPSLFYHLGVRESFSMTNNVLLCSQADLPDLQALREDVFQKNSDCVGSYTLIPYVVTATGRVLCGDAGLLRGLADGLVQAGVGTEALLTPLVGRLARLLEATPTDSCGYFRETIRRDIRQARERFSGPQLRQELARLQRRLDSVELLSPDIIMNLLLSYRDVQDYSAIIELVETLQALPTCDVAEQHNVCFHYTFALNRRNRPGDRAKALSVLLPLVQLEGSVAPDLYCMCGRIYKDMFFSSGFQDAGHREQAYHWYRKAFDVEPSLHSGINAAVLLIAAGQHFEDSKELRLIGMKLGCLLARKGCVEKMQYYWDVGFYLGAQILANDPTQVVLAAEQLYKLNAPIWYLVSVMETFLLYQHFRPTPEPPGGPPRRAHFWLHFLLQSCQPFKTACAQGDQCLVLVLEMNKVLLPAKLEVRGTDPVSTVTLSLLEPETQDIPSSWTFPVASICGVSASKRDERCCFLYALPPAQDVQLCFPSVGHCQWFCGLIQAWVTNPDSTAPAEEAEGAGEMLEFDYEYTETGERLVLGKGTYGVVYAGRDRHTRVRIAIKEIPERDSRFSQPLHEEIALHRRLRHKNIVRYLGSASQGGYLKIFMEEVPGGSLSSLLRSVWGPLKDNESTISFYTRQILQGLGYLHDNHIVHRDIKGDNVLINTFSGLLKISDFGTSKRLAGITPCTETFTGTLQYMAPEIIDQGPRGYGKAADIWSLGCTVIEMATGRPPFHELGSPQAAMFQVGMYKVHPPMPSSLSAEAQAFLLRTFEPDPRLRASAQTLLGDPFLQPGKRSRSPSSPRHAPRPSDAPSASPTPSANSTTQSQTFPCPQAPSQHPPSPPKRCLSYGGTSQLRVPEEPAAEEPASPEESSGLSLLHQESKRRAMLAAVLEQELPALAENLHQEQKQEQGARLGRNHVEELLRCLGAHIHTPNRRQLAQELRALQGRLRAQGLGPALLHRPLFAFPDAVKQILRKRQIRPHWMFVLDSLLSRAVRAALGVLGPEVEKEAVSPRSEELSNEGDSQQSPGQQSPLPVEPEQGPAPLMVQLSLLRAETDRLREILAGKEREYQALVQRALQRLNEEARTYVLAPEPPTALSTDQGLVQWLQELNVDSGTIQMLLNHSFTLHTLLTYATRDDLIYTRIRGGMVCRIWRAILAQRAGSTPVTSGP

[37] = target: Interleukin-1 receptor-associated kinase 1 (Homo sapiens) (UniProt P51617); details: Compound concentration 100.0 nM
[38] = target: Dual 3',5'-cyclic-AMP and -GMP phosphodiesterase 11A (Homo sapiens, UniProt Q9HCR9); test: Biochemical assay (PDE11A)
[39] = target: Myosin light chain kinase, smooth muscle (Homo sapiens) (UniProt Q15746); details: Compound concentration 100.0 nM

| SMILES | inhibition [1] | residual activity [2] | residual activity [3] | residual activity [4] | residual activity [5] | residual activity [6] | residual activity [7] | residual activity [8] | residual activity [9] | residual activity [10] | residual activity [11] | residual activity [12] | residual activity [13] | residual activity [14] | residual activity [15] | residual activity [16] | residual activity [17] | residual activity [18] | residual activity [19] | residual activity [20] | also measured |
| --- | --- | --- | --- | --- | --- | --- | --- | --- | --- | --- | --- | --- | --- | --- | --- | --- | --- | --- | --- | --- | --- |
| CC(C)CC(=O)N1CCc2nc(-c3ccc(Br)cc3)nc(N(C)Cc3ccccc3)c2C1 [THPP-1-NC] | 29.5% | 100% | 100% | 100% | 78% | 89% | 100% | 100% | 100% | 100% | 100% | 100% | 100% | 100% | 91% | 99% | 100% | 100% | 100% | 100% | residual activity [21]: 100%; residual activity [22]: 81%; residual activity [23]: 94%; residual activity [24]: 100%; residual activity [25]: 100%; residual activity [26]: 99%; residual activity [27]: 63%; residual activity [28]: 78%; residual activity [29]: 100%; residual activity [30]: 100%; residual activity [31]: 100%; residual activity [32]: 100%; inhibition [33]: 29%; residual activity [34]: 97%; residual activity [35]: 58%; residual activity [36]: 100%; residual activity [37]: 100%; Ki [38]: 8.8 µM (not active); residual activity [39]: 86% |
| COCCOc1nc(-c2ccc(Cl)nc2)nc2c1CN(C(=O)c1ncn3ccccc13)CC2 [THPP-1] | 16.8% | 100% | 100% | 100% | 67% | 97% | 100% | 100% | 100% | 100% | 88% | 100% | 100% | 100% | 100% | 100% | 100% | 100% | 93% | 100% | residual activity [21]: 100%; residual activity [22]: 95%; residual activity [23]: 97%; residual activity [24]: 95%; residual activity [25]: 100%; residual activity [26]: 100%; residual activity [27]: 90%; residual activity [28]: 93%; residual activity [29]: 100%; residual activity [30]: 100%; residual activity [31]: 100%; residual activity [32]: 100%; inhibition [33]: -2.32%; residual activity [34]: 100%; residual activity [35]: 60%; residual activity [36]: 100%; residual activity [37]: 100%; Ki [38]: 0.298 µM (not active); residual activity [39]: 70% |
